Read-outs that look alike come from different tables or passages of the source.
Columns and labels:
[1] = system: chloroquine-sensitive (D10) strain of P. falciparum; experiment: P. falciparum drug susceptibility assay (pLDH), D10 strain; type: cell-based; conditions: Plasmodium falciparum, read-out: D10 IC50
Description: (§1) All reagents were from Sigma Aldrich, Milan, Italy unless indicated otherwise. As reported in the literature, the chloroquine-sensitive (D10) and chloroquine-resistant (W2) strains of P. falciparum were maintained in vitro at 5% hematocrit medium (constituted of human type Apositive red blood cells) in RPMI 1640 (EuroClone, Celbio, Italy) with the addition of 1% AlbuMax (Invitrogen, Milan, Italy), 0.01% hypoxanthine, […], and […]. The resulting cultures were incubated at 37 °C in a mixture of standard gas with the following composition: 1% O2, 5% CO2, and 94% N2. […] Drugs were placed in 96 well flat-bottom microplates and a series of dilutions performed. Asynchronous cultures (parasitemia of 1–1.5%; 1% final hematocrit) were aliquoted into the plates and incubated for 72 h at 37 °C. The cultures were washed with PBS before the chemosensitivity assay while the parasite growth was determined spectrophotometrically (OD650) by measuring the parasite lactate dehydrogenase (pLDH) activity. These measurements were made according to the modified version of Makler’s method both in control and drug-tested cultures. Antiplasmodial activity is expressed as 50% inhibitory concentrations (IC50), which means the dose of compounds necessary to inhibit cell growth by 50%. Each IC50 value is the mean standard deviation of at least three separate experiments performed in duplicate.

[2] = system: chloroquine-resistant (W2) strain of P. falciparum; experiment: P. falciparum drug susceptibility assay (pLDH), W2 strain; type: cell-based; conditions: Plasmodium falciparum, read-out: W2 IC50
Description: as §1

[3] = system: human microvascular endothelial cells (HMEC-1); experiment: Cytotoxicity assay on HMEC-1 cell line; type: cell-based; conditions: cytotoxicity on HMEC-1 cell line
[4] = system: P. falciparum; set-up: method as in PMID 30640072; conditions: D10 and W2 strains, earlier work; cited from earlier work
[5] = system: embryonic murine fibroblasts (NIH-3T3 cell line); set-up: method as in PMID 31718145; conditions: cytotoxicity on NIH-3T3 cell line; cited from earlier work
[6] = system: S. mansoni; set-up: method as in PMID 31718145; conditions: schistosomula, adult worm pairs, juvenile parasites, eggs; cited from earlier work
[7] = set-up: method as in PMID 31718145; conditions: cited from earlier work
[8] = CQ-sensitive D10 strain, pLDH assay, 72 h, mean ± SD of three experiments in duplicate
[9] = CQ-resistant W2 strain, pLDH assay, 72 h, mean ± SD of three experiments in duplicate

Structure (SMILES) | IC50 [3] [nM] | IC50 [1, 8] [nM] | IC50 [2, 9] [nM] | also measured
CCN(CC)CCCC(C)Nc1ccnc2cc(Cl)ccc12 (stereo not shown) [CQ, chloroquine, reference compound] |  |  |  | IC50 ([1]; D10, 72 h): 40 nM; IC50 ([2]; W2, 72 h): 540 nM
CC[C@@]1(O)C(=O)OCc2c1cc1n(c2=O)Cc2cc3ccccc3nc2-1 [Camptothecin, reference compound] | 18 |  |  | 
COC1=C(Cc2ccccc2)C(=O)C2=C(NCCS2(=O)=O)C1=O [Compound 22] | 17600 ± 1400 | 600 ± 210 | 700 ± 220 | antiplasmodial activity (in words) [4]: active in the range of low-micromolar concentrations; IC50 [5]: 88600 ± 7700 nM
COC1=C(Cc2ccccc2)C(=O)C=CC1=O [Compound 23] |  |  |  | antiplasmodial activity (in words) [4]: absence of activity; activity against S. mansoni (in words) [6]: inactive
COC1=C(Cc2ccc(Cl)cc2)C(=O)C2=C(NCCS2(=O)=O)C1=O [Compound 24] | 8510 ± 760 | 1630 ± 350 | 1900 ± 1050 | 
COC1=C(Cc2ccc(C(F)(F)F)cc2)C(=O)C2=C(NCCS2(=O)=O)C1=O [Compound 25] | 20400 ± 1600 | 5060 ± 1680 | 5020 ± 1810 | 
COC1=C(Cc2ccc(OC)cc2)C(=O)C2=C(NCCS2(=O)=O)C1=O [Compound 26] | 17900 ± 1100 | 1210 ± 200 | 1220 ± 240 | cLogD [7]: 0.33; IC50 [5]: > 100000 nM
COC1=C(Cc2ccc(OC(F)(F)F)cc2)C(=O)C2=C(NCCS2(=O)=O)C1=O [Compound 27] | 3590 ± 720 | 1120 ± 400 | 810 ± 190 | cLogD [7]: 1.37

From paper PMC7180939, “Antiplasmodial Activity of p-Substituted Benzyl Thiazinoquinone Derivatives and Their Potential against Parasitic Infections” (Molecules, 2020)
